The text below walks through data of PubChem BioAssay AID624167 (Sanford-Burnham Center for Chemical Genomics, 2012).

Holding throughout (experiment): inhibition of PEG-3 promoter-driven reporter – cell-based, HeLa, luciferase, CREF/GAPDH counter-screen panel, dose response (AID 624167)
On the technique in general: A counterscreen serves to expose hits that act by an unwanted route or on another target.

Assay [1] addresses PEG-3 (UniProt Q6IN02). The settings on record: HeLa PEG-Prom luciferase reporter, overnight, CREF/GAPDH counter-screens, mean of runs. A general note: In a reporter assay the amount or activity of a reporter protein is the signal.
In assay [2] the test system is PEG-3. The settings on record: HeLa PEG-Prom luciferase reporter, overnight, CREF/GAPDH counter-screens.
A further assay deals with Rat fibroblasts (CREF). The settings on record: CREF/GAPDH counter-screens.
Setting [3] is: run 1, dose range 1, individual replicate IC50 per panel.
The mark [4] stands for this setting: run 2, dose range 1, individual replicate IC50 per panel.

Sequence of PEG-3 (UniProt Q6IN02) (Q6IN02 whole entry, looked up): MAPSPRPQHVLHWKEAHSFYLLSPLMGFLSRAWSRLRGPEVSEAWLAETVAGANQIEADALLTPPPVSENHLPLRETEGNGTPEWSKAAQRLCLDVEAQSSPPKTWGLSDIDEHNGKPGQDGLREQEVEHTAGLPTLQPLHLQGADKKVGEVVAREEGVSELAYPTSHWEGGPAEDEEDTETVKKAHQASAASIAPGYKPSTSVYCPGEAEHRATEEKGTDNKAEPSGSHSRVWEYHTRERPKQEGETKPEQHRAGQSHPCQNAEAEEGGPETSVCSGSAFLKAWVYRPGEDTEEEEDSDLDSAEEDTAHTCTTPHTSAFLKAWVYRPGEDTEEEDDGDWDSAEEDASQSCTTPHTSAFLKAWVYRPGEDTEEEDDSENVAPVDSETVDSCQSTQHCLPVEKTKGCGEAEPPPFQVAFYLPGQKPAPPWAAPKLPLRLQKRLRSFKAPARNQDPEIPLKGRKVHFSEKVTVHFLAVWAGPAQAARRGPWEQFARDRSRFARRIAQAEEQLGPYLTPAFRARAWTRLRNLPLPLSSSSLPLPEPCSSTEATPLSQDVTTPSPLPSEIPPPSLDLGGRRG

Consider `Oc1c(I)cc(Cl)c2cccnc12`, for which the IC50 on PEG-3 [1] is 15.7 µM; with PEG-3 [2] (setting [3]) it was 7910 nM; in the assay with PEG-3 [2] (setting [4]) it was 23500 nM; in the assay with Rat fibroblasts (CREF) (mean of runs) it was 17.9 µM; with Rat fibroblasts (CREF) (setting [3]) it was 15.7 µM; in the assay with Rat fibroblasts (CREF) (setting [4]), 20.2 µM.
Consider `CCCN1C=CC(=C2C(=O)c3ccccc3C2=O)C=C1`, for which the IC50 at PEG-3 [1] was 0.538 µM; in the assay on PEG-3 [2] (setting [3]), 783 nM; in the assay on PEG-3 [2] (setting [4]), 292 nM; in the assay with Rat fibroblasts (CREF) (mean of runs) it was 0.538 µM; with Rat fibroblasts (CREF) (setting [3]), 0.469 µM; with Rat fibroblasts (CREF) (setting [4]) it was 0.606 µM.
For the compound `O=C(/C=C/c1ccccc1)Nc1cccc(C(=O)O)c1`, the IC50 was 2.22 µM on PEG-3 [1]; 1790 nM with PEG-3 [2] (setting [3]); 2640 nM in the assay with PEG-3 [2] (setting [4]); 5.31 µM with Rat fibroblasts (CREF) (mean of runs); 4.02 µM in the assay with Rat fibroblasts (CREF) (setting [3]); 6.6 µM in the assay with Rat fibroblasts (CREF) (setting [4]).
Consider `O=c1cc(-c2ccc(O)cc2)oc2ccc3ccccc3c12`, for which the half-maximal inhibitory concentration (IC50) at PEG-3 [1] was 4.08 µM; with PEG-3 [2] (setting [3]), 4650 nM; with PEG-3 [2] (setting [4]) it was 3520 nM; with Rat fibroblasts (CREF) (mean of runs), 1.23 µM; with Rat fibroblasts (CREF) (setting [3]), 0.883 µM; with Rat fibroblasts (CREF) (setting [4]), 1.57 µM.
Regarding `O=C(Nc1nc2ccccc2[nH]1)c1ccccc1F`, the IC50 on PEG-3 [1] was 1.26 µM; with PEG-3 [2] (setting [3]) it was 1130 nM; in the assay with PEG-3 [2] (setting [4]), 1400 nM; in the assay with Rat fibroblasts (CREF) (mean of runs), 1.47 µM; in the assay on Rat fibroblasts (CREF) (setting [3]) it was 1.26 µM; with Rat fibroblasts (CREF) (setting [4]), 1.68 µM.
For `CN(C)c1ccc(/C=C/c2ccc3ccccc3n2)cc1`, the concentration for half-maximal inhibition (IC50) at PEG-3 [1] was 3.29 µM; with PEG-3 [2] (setting [3]), 2090 nM; in the assay with PEG-3 [2] (setting [4]) it was 4480 nM; in the assay with Rat fibroblasts (CREF) (mean of runs), 2.69 µM; in the assay on Rat fibroblasts (CREF) (setting [3]), 2.15 µM; in the assay with Rat fibroblasts (CREF) (setting [4]), 3.22 µM.
`COCCn1c(C)cc(C(=O)CSc2nnc(C)s2)c1C`: the concentration for half-maximal inhibition (IC50) was 9.4 µM at PEG-3 [1]; 5440 nM with PEG-3 [2] (setting [3]); 13400 nM with PEG-3 [2] (setting [4]); 8.78 µM in the assay with Rat fibroblasts (CREF) (mean of runs); 6.79 µM in the assay on Rat fibroblasts (CREF) (setting [3]); 10.8 µM in the assay with Rat fibroblasts (CREF) (setting [4]).
As to `CCOc1ccc2c(ccc(/C=C/c3cc(C)c4cccnc4c3O)[n+]2C)c1`, the IC50 is 5.09 µM at PEG-3 [1]; 4300 nM in the assay on PEG-3 [2] (setting [3]); 5880 nM in the assay with PEG-3 [2] (setting [4]); 11.8 µM in the assay on Rat fibroblasts (CREF) (mean of runs); 11.9 µM in the assay on Rat fibroblasts (CREF) (setting [3]); 11.7 µM with Rat fibroblasts (CREF) (setting [4]).
Regarding `CCN(CCCl)c1cc(CN(C)C)cc(NC(=O)c2ccc(C(=O)Nc3cc(CN(C)C)cc(N(CC)CCCl)c3)cc2)c1`, the IC50 at PEG-3 [1] was 1.12 µM; with PEG-3 [2] (setting [3]), 1600 nM; with PEG-3 [2] (setting [4]), 642 nM; in the assay on Rat fibroblasts (CREF) (mean of runs), 7.53 µM; in the assay with Rat fibroblasts (CREF) (setting [3]) it was 14.3 µM; with Rat fibroblasts (CREF) (setting [4]) it was 0.8 µM.
As to `O=C(O)c1cccc(COc2ccccc2Cl)c1`, the IC50 on PEG-3 [1] was 1.83 µM; with PEG-3 [2] (setting [3]), 679 nM; in the assay with PEG-3 [2] (setting [4]), 2970 nM; in the assay on Rat fibroblasts (CREF) (mean of runs) it was 20.2 µM; with Rat fibroblasts (CREF) (setting [3]), 38.8 µM; in the assay with Rat fibroblasts (CREF) (setting [4]) it was 1.55 µM.
In the case of `O=c1c(Cl)c(N2CCCCC2)cnn1-c1nc2ccccc2[nH]1`, the IC50 is 3.25 µM on PEG-3 [1]; 3020 nM with PEG-3 [2] (setting [3]); 3490 nM in the assay on PEG-3 [2] (setting [4]); 0.714 µM with Rat fibroblasts (CREF) (mean of runs); 0.81 µM with Rat fibroblasts (CREF) (setting [3]); 0.618 µM in the assay on Rat fibroblasts (CREF) (setting [4]).
Regarding `Nc1ccc(-c2nc3ccc(C(=O)O)cc3s2)cc1`, the half-inhibitory concentration (IC50) at PEG-3 [1] was 0.363 µM; in the assay with PEG-3 [2] (setting [3]), 440 nM; with PEG-3 [2] (setting [4]), 286 nM; with Rat fibroblasts (CREF) (mean of runs), 6.03 µM; in the assay on Rat fibroblasts (CREF) (setting [3]), 6.25 µM; with Rat fibroblasts (CREF) (setting [4]), 5.81 µM.
Regarding `CC(=O)N1CCCC(c2cc(C(=O)Nc3ccccc3)no2)C1` (stereo not given), the 50% inhibitory concentration (IC50) at PEG-3 [1] is 6.41 µM; with PEG-3 [2] (setting [3]), 4870 nM; in the assay on PEG-3 [2] (setting [4]) it was 7940 nM; with Rat fibroblasts (CREF) (mean of runs), 9.51 µM; with Rat fibroblasts (CREF) (setting [3]), 9.26 µM; with Rat fibroblasts (CREF) (setting [4]), 9.76 µM.
In the case of `COc1cccc2nc3c(C(=O)NCCN(C)C)cccc3cc12`, the IC50 is 9.14 µM at PEG-3 [1]; 11200 nM in the assay on PEG-3 [2] (setting [3]); 7030 nM in the assay on PEG-3 [2] (setting [4]); 8.72 µM in the assay on Rat fibroblasts (CREF) (mean of runs); 12 µM with Rat fibroblasts (CREF) (setting [3]); 5.44 µM in the assay with Rat fibroblasts (CREF) (setting [4]).
On to `Cc1nc(-c2ccc(NC(=O)c3ccco3)cc2)cs1`, for which the IC50 at PEG-3 [1] is 1.54 µM; in the assay with PEG-3 [2] (setting [3]), 1390 nM; with PEG-3 [2] (setting [4]), 1690 nM; with Rat fibroblasts (CREF) (mean of runs) it was 0.433 µM; in the assay with Rat fibroblasts (CREF) (setting [3]) it was 0.43 µM; with Rat fibroblasts (CREF) (setting [4]), 0.436 µM.

For orientation: IC50 means the midpoint of a concentration-inhibition curve.
